Experimental data taken from paper PMC5218480 (PLoS ONE, 2017).

Test system: MV-4-11 cells
Test: Gene expression microarray analysis (Affymetrix PrimeView) and GSEA
Type: cell-based, human
Parameters: RFU PODN (11730768_x_at) / Fold change /veh PODN (11730768_x_at) / RFU LINC00158 (11744669_a_at) / Fold change /veh LINC00158 (11744669_a_at) / RFU DUSP10 (11751237_a_at) / Fold change /veh DUSP10 (11751237_a_at) / RFU ID3 (11757404_x_at) / Fold change /veh ID3 (11757404_x_at) / RFU PLEKHG5 (11737974_s_at) / Fold change /veh PLEKHG5 (11737974_s_at) / RFU LRRC4B (11730491_at) / Fold change /veh LRRC4B (11730491_at) / RFU GIMAP4 (11747438_a_at) / Fold change /veh GIMAP4 (11747438_a_at) / RFU KRT8 (11758183_x_at) / Fold change /veh KRT8 (11758183_x_at) / RFU CNN1 (11734310_a_at) / Fold change /veh CNN1 (11734310_a_at) / RFU VPS37D (11726825_at) / Fold change /veh VPS37D (11726825_at) / RFU C10orf10 (11716522_x_at) / Fold change /veh C10orf10 (11716522_x_at) / RFU KIR2DL2 /// KIR2DL4 /// KIR2DL5A /// KIR2DL5B /// KIR2DS1 /// KIR2DS2 /// KIR2DS3 /// KIR2DS4 /// KIR3DL3 /// KIR3DL3 /// KIR3DS1 (11738374_at) / Fold change /veh KIR2DL2 /// KIR2DL4 /// KIR2DL5A /// KIR2DL5B /// KIR2DS1 /// KIR2DS2 /// KIR2DS3 /// KIR2DS4 /// KIR3DL3 /// KIR3DL3 /// KIR3DS1 (11738374_at) / RFU C1QL1 (11718748_at) / Fold change /veh C1QL1 (11718748_at) / RFU TMPRSS4 (11747572_a_at) / Fold change /veh TMPRSS4 (11747572_a_at) / RFU HAMP (11756126_x_at) / Fold change /veh HAMP (11756126_x_at) / RFU RNFT2 (11725882_a_at) / Fold change /veh RNFT2 (11725882_a_at) / RFU NR4A2 (11747474_a_at) / Fold change /veh NR4A2 (11747474_a_at) / RFU ABCC12 (11746883_a_at) / Fold change /veh ABCC12 (11746883_a_at) / RFU TMEM136 (11760407_x_at) / Fold change /veh TMEM136 (11760407_x_at) / RFU CLDN22 /// WWC2 (11732394_at) / Fold change /veh CLDN22 /// WWC2 (11732394_at) / RFU HLA-DPB1 (11760878_x_at) / Fold change /veh HLA-DPB1 (11760878_x_at) / RFU SPINT1 (11716480_a_at) / Fold change /veh SPINT1 (11716480_a_at) / RFU GAP43 (11754022_s_at) / Fold change /veh GAP43 (11754022_s_at) / RFU A4GNT (11735810_at) / Fold change /veh A4GNT (11735810_at) / RFU PRB3 (11715151_x_at) / Fold change /veh PRB3 (11715151_x_at) / RFU TUBB4B (11761932_at) / Fold change /veh TUBB4B (11761932_at) / RFU CAPN14 (11732068_a_at) / Fold change /veh CAPN14 (11732068_a_at) / RFU TMCC2 (11721928_a_at) / Fold change /veh TMCC2 (11721928_a_at) / RFU IRGQ (11745062_a_at) / Fold change /veh IRGQ (11745062_a_at) / RFU FAM174B (11720279_a_at) / Fold change /veh FAM174B (11720279_a_at) / RFU TMPRSS4 (11748680_a_at) / Fold change /veh TMPRSS4 (11748680_a_at) / RFU FAM212B (11763350_a_at) / Fold change /veh FAM212B (11763350_a_at) / RFU PLEKHG5 (11743358_a_at) / Fold change /veh PLEKHG5 (11743358_a_at) / RFU ZSCAN30 (11745921_a_at) / Fold change /veh ZSCAN30 (11745921_a_at) / RFU CMKLR1 (11741424_a_at) / Fold change /veh CMKLR1 (11741424_a_at) / RFU LOC101060620 /// MAPK8IP1 (11723275_at) / Fold change /veh LOC101060620 /// MAPK8IP1 (11723275_at) / RFU SPTSSB (11747773_x_at) / Fold change /veh SPTSSB (11747773_x_at) / RFU PRSS12 (11739890_at) / Fold change /veh PRSS12 (11739890_at) / RFU BIN1 (11741810_x_at) / Fold change /veh BIN1 (11741810_x_at) / RFU WNT11 (11732464_a_at) / Fold change /veh WNT11 (11732464_a_at) / RFU C10orf10 (11716521_a_at) / Fold change /veh C10orf10 (11716521_a_at) / RFU C5orf56 (11738089_at) / Fold change /veh C5orf56 (11738089_at) / RFU CYB561 (11721691_x_at) / Fold change /veh CYB561 (11721691_x_at) / RFU ANKRD19P (11752326_a_at) / Fold change /veh ANKRD19P (11752326_a_at) / RFU OR2T12 /// OR2T33 /// OR2T8 (11738714_s_at) / Fold change /veh OR2T12 /// OR2T33 /// OR2T8 (11738714_s_at) / RFU VCAN (11748164_a_at) / Fold change /veh VCAN (11748164_a_at) / RFU JSRP1 (11732532_at) / Fold change /veh JSRP1 (11732532_at) / RFU KRTAP10-11 (11738290_x_at) / Fold change /veh KRTAP10-11 (11738290_x_at) / RFU MYO3A (11730013_a_at) / Fold change /veh MYO3A (11730013_a_at) / RFU EBF3 (11725865_a_at) / Fold change /veh EBF3 (11725865_a_at) / RFU CAMK2N1 (11719241_x_at) / Fold change /veh CAMK2N1 (11719241_x_at) / RFU C5orf56 (11738088_a_at) / Fold change /veh C5orf56 (11738088_a_at) / RFU OLFML3 (11715873_a_at) / Fold change /veh OLFML3 (11715873_a_at) / RFU LOC100653217 /// NTM (11731650_a_at) / Fold change /veh LOC100653217 /// NTM (11731650_a_at) / RFU MAPK11 (11762145_a_at) / Fold change /veh MAPK11 (11762145_a_at) / RFU FIZ1 (11724087_x_at) / Fold change /veh FIZ1 (11724087_x_at) / RFU OASL (11726364_x_at) / Fold change /veh OASL (11726364_x_at) / RFU SOX15 (11748057_x_at) / Fold change /veh SOX15 (11748057_x_at) / RFU CD79A (11719716_a_at) / Fold change /veh CD79A (11719716_a_at) / RFU HIST1H1D (11736915_at) / Fold change /veh HIST1H1D (11736915_at) / RFU CASKIN2 (11723855_a_at) / Fold change /veh CASKIN2 (11723855_a_at) / RFU LOC730098 (11760151_x_at) / Fold change /veh LOC730098 (11760151_x_at) / RFU OR4N2 (11742367_at) / Fold change /veh OR4N2 (11742367_at) / RFU PRRT2 (11749266_a_at) / Fold change /veh PRRT2 (11749266_a_at) / RFU SNX32 (11753110_a_at) / Fold change /veh SNX32 (11753110_a_at) / RFU CDHR5 (11726645_a_at) / Fold change /veh CDHR5 (11726645_a_at) / RFU RCAN1 (11760418_a_at) / Fold change /veh RCAN1 (11760418_a_at) / RFU FAM167A (11723789_a_at) / Fold change /veh FAM167A (11723789_a_at) / RFU FAM26E (11764081_at) / Fold change /veh FAM26E (11764081_at) / RFU ISYNA1 (11749810_s_at) / Fold change /veh ISYNA1 (11749810_s_at) / RFU ACY1 (11761880_at) / Fold change /veh ACY1 (11761880_at) / RFU 11764098_at / Fold change /veh 11764098_at / RFU SAMD14 (11745864_x_at) / Fold change /veh SAMD14 (11745864_x_at) / RFU NPB (11741838_a_at) / Fold change /veh NPB (11741838_a_at) / RFU TMPRSS6 (11731388_a_at) / Fold change /veh TMPRSS6 (11731388_a_at) / RFU KRTAP10-2 (11738614_at) / Fold change /veh KRTAP10-2 (11738614_at) / RFU ARHGAP8 /// PRR5-ARHGAP8 (11727945_x_at) / Fold change /veh ARHGAP8 /// PRR5-ARHGAP8 (11727945_x_at) / RFU KRTAP5-7 /// NADSYN1 (11734609_at) / Fold change /veh KRTAP5-7 /// NADSYN1 (11734609_at) / RFU RASL12 (11751679_a_at) / Fold change /veh RASL12 (11751679_a_at) / RFU CDKN2B (11736163_a_at) / Fold change /veh CDKN2B (11736163_a_at) / RFU PRF1 (11729649_at) / Fold change /veh PRF1 (11729649_at) / RFU, ZNF638 /// ZNF638-IT1 / Fold change vs veh, ZNF638 /// ZNF638-IT1 / RFU, PANK3 / Fold change vs veh, PANK3 / RFU, SH3YL1 / Fold change vs veh, SH3YL1 / RFU, ZEB2 / Fold change vs veh, ZEB2 / RFU, NRIP1 / Fold change vs veh, NRIP1 / RFU, PTTG1IP / Fold change vs veh, PTTG1IP / RFU, CAPN2 / Fold change vs veh, CAPN2 / RFU, MED14 / Fold change vs veh, MED14 / RFU, SNORA58 / Fold change vs veh, SNORA58 / RFU, C1orf63 / Fold change vs veh, C1orf63 / RFU, LRRFIP1 / Fold change vs veh, LRRFIP1 / RFU, NDUFAF7 / Fold change vs veh, NDUFAF7 / RFU, SLC12A2 / Fold change vs veh, SLC12A2 / RFU, IBTK / Fold change vs veh, IBTK / RFU, ESF1 / Fold change vs veh, ESF1 / Fold change vs veh, TMEM50B / RFU, TAOK1 / Fold change vs veh, TAOK1 / RFU, ACBD3 / Fold change vs veh, ACBD3 / RFU, TMA16 / Fold change vs veh, TMA16 / RFU, RWDD3 / Fold change vs veh, RWDD3 / RFU, BCAT1 / Fold change vs veh, BCAT1 / RFU, EDEM3 / Fold change vs veh, EDEM3 / RFU, TMEM33 / Fold change vs veh, TMEM33 / RFU, WDR75 / Fold change vs veh, WDR75 / RFU, AHCTF1 / Fold change vs veh, AHCTF1 / RFU, TFRC / Fold change vs veh, TFRC / RFU, ZDHHC17 / Fold change vs veh, ZDHHC17 / RFU, NOM1 / Fold change vs veh, NOM1 / RFU, ARL8B / Fold change vs veh, ARL8B / RFU, ZBTB11 / Fold change vs veh, ZBTB11 / RFU, TAMM41 / Fold change vs veh, TAMM41 / RFU, KIAA1704 /// LOC100996395 / Fold change vs veh, KIAA1704 /// LOC100996395 / RFU, ING1 / Fold change vs veh, ING1 / RFU, TRMT61B / Fold change vs veh, TRMT61B / RFU, FUBP3 / Fold change vs veh, FUBP3 / RFU, TP53 / Fold change vs veh, TP53 / RFU, TNKS2 / Fold change vs veh, TNKS2 / RFU, ZFP14 / Fold change vs veh, ZFP14 / RFU, ACTR2 / Fold change vs veh, ACTR2 / RFU, PPP3R1 / Fold change vs veh, PPP3R1 / RFU, PIK3R1 / Fold change vs veh, PIK3R1 / RFU, HNRNPA1 / Fold change vs veh, HNRNPA1 / RFU, RNF170 / Fold change vs veh, RNF170 / RFU, ZNF28 / Fold change vs veh, ZNF28 / RFU, RNGTT / Fold change vs veh, RNGTT / RFU, OGT / Fold change vs veh, OGT / RFU, BRD1 / Fold change vs veh, BRD1 / RFU, MARS / Fold change vs veh, MARS / RFU, ZNF655 / Fold change vs veh, ZNF655 / RFU, FAHD1 / Fold change vs veh, FAHD1 / RFU, BDP1 / Fold change vs veh, BDP1 / RFU, LRRCC1 / Fold change vs veh, LRRCC1 / RFU, ARID1A / Fold change vs veh, ARID1A / RFU, ZNF146 / Fold change vs veh, ZNF146 / RFU, ZNF330 / Fold change vs veh, ZNF330 / RFU, GPN3 / Fold change vs veh, GPN3 / RFU, C9orf123 / Fold change vs veh, C9orf123 / RFU, N4BP2L2 / Fold change vs veh, N4BP2L2 / RFU, ARFIP1 / Fold change vs veh, ARFIP1 / RFU, FAM179B / Fold change vs veh, FAM179B / RFU, BCL10 / Fold change vs veh, BCL10 / RFU, UHRF1BP1L / Fold change vs veh, UHRF1BP1L / RFU, BET1 / Fold change vs veh, BET1 / RFU, CNOT2 / Fold change vs veh, CNOT2 / RFU, ZNF268 / Fold change vs veh, ZNF268 / Fold change vs veh, ZNF507 / RFU, DGCR2 / Fold change vs veh, DGCR2 / RFU, WDSUB1 / Fold change vs veh, WDSUB1 / Fold change vs veh, HSP90B1 /// MIR3652 / RFU, ADSS / Fold change vs veh, ADSS / RFU, GK / Fold change vs veh, GK / RFU, ZNF148 / Fold change vs veh, ZNF148 / RFU, TAF9 / Fold change vs veh, TAF9 / RFU, SLC1A5 / Fold change vs veh, SLC1A5 / RFU, SLMO2 / Fold change vs veh, SLMO2 / RFU, ABCC4 / Fold change vs veh, ABCC4 / RFU, LOC101060439 /// RAP1B / Fold change vs veh, LOC101060439 /// RAP1B / RFU, RFX7 / Fold change vs veh, RFX7 / RFU, GTPBP10 / Fold change vs veh, GTPBP10 / RFU, CNEP1R1 / Fold change vs veh, CNEP1R1 / RFU, BIVM-ERCC5 /// ERCC5 / Fold change vs veh, BIVM-ERCC5 /// ERCC5 / RFU, ILF3 / Fold change vs veh, ILF3 / RFU 11762660_at / Fold change /veh 11762660_at / RFU VCAN (11757783_s_at) / Fold change /veh VCAN (11757783_s_at) / RFU DDX43 (11728927_at) / Fold change /veh DDX43 (11728927_at) / RFU KRT8 (11758188_x_at) / Fold change /veh KRT8 (11758188_x_at) / RFU NKD1 (11759106_at) / Fold change /veh NKD1 (11759106_at) / RFU SRD5A1 (11742802_a_at) / Fold change /veh SRD5A1 (11742802_a_at) / RFU TPSAB1 /// TPSB2 (11721975_s_at) / Fold change /veh TPSAB1 /// TPSB2 (11721975_s_at) / RFU GSTM3 (11746129_a_at) / Fold change /veh GSTM3 (11746129_a_at) / RFU IL23R (11737362_x_at) / Fold change /veh IL23R (11737362_x_at) / RFU TMEM51 (11727254_a_at) / Fold change /veh TMEM51 (11727254_a_at) / RFU PIWIL2 (11732686_x_at) / Fold change /veh PIWIL2 (11732686_x_at) / RFU ORM1 (11744905_x_at) / Fold change /veh ORM1 (11744905_x_at) / RFU CCDC152 (11743942_at) / Fold change /veh CCDC152 (11743942_at) / RFU ECM1 (11717891_a_at) / Fold change /veh ECM1 (11717891_a_at) / RFU IL23R (11748794_a_at) / Fold change /veh IL23R (11748794_a_at) / RFU TNFAIP8L3 (11732012_x_at) / Fold change /veh TNFAIP8L3 (11732012_x_at) / RFU MBOAT4 (11741988_at) / Fold change /veh MBOAT4 (11741988_at) / RFU 11764193_at / Fold change /veh 11764193_at / RFU TMEM53 (11763286_at) / Fold change /veh TMEM53 (11763286_at) / RFU MAGEB2 (11727129_at) / Fold change /veh MAGEB2 (11727129_at) / RFU TMEM200A (11744735_a_at) / Fold change /veh TMEM200A (11744735_a_at) / RFU CCDC152 (11751479_a_at) / Fold change /veh CCDC152 (11751479_a_at) / RFU FAM211A (11726209_a_at) / Fold change /veh FAM211A (11726209_a_at) / RFU RGS16 (11746705_a_at) / Fold change /veh RGS16 (11746705_a_at) / RFU VCAN (11755009_s_at) / Fold change /veh VCAN (11755009_s_at) / RFU RHOB (11743442_s_at) / Fold change /veh RHOB (11743442_s_at) / RFU RGS16 (11720943_a_at) / Fold change /veh RGS16 (11720943_a_at) / RFU RGS16 (11720944_at) / Fold change /veh RGS16 (11720944_at) / RFU, VPS4B / Fold change vs veh, VPS4B / RFU, CREB1 / Fold change vs veh, CREB1 / RFU, DNAJC13 / Fold change vs veh, DNAJC13 / RFU, GNAQ / Fold change vs veh, GNAQ / RFU, CDK5R1 / Fold change vs veh, CDK5R1 / RFU, ZRANB3 / Fold change vs veh, ZRANB3 / RFU, CUL4A / Fold change vs veh, CUL4A / RFU, CCNY / Fold change vs veh, CCNY / RFU, UFL1 / Fold change vs veh, UFL1 / RFU, COG3 / Fold change vs veh, COG3 / RFU, DIAPH2 / Fold change vs veh, DIAPH2 / RFU, SKA2 / Fold change vs veh, SKA2 / RFU, AFF3 / Fold change vs veh, AFF3 / RFU, LMF1 / Fold change vs veh, LMF1 / RFU, IPO11 / Fold change vs veh, IPO11 / RFU, DFFB / Fold change vs veh, DFFB / RFU, FOXP1 / Fold change vs veh, FOXP1 / RFU, CARD8 / Fold change vs veh, CARD8 / RFU, STRN3 / Fold change vs veh, STRN3 / RFU, ADK / Fold change vs veh, ADK / RFU, RASSF2 / Fold change vs veh, RASSF2 / RFU, WIPF1 / Fold change vs veh, WIPF1 / RFU, LARP1B / Fold change vs veh, LARP1B / RFU, RASA1 / Fold change vs veh, RASA1 / RFU, RB1 / Fold change vs veh, RB1 / RFU, PPFIA1 / Fold change vs veh, PPFIA1 / RFU, MAT2A / Fold change vs veh, MAT2A / RFU, CCT5 / Fold change vs veh, CCT5 / RFU, WDR92 / Fold change vs veh, WDR92 / RFU, CUX1 / Fold change vs veh, CUX1 / RFU, TTC7A / Fold change vs veh, TTC7A / RFU, TMEM135 / Fold change vs veh, TMEM135 / RFU, DEPTOR / Fold change vs veh, DEPTOR / RFU, CPM / Fold change vs veh, CPM / RFU, DNAJB6 / Fold change vs veh, DNAJB6 / RFU, CACNA2D3 / Fold change vs veh, CACNA2D3 / RFU, DTX4 / Fold change vs veh, DTX4 / RFU, TFCP2 / Fold change vs veh, TFCP2 / RFU, GMCL1 /// GMCL1P1 / Fold change vs veh, GMCL1 /// GMCL1P1 / RFU, AEBP2 / Fold change vs veh, AEBP2 / RFU, SNHG1 /// SNORD22 /// SNORD25 /// SNORD26 /// SNORD27 /// SNORD28 /// SNORD29 /// SNORD31 / Fold change vs veh, SNHG1 /// SNORD22 /// SNORD25 /// SNORD26 /// SNORD27 /// SNORD28 /// SNORD29 /// SNORD31 / Fold change (Aza/veh), C12orf56 (ProbeSet 11735607_a_at) / Fold change (ACY-1035/veh), C12orf56 (ProbeSet 11735607_a_at) / Fold change (Aza/veh), FGFR1OP (ProbeSet 11751329_s_at) / Fold change (ACY-1035/veh), FGFR1OP (ProbeSet 11751329_s_at) / Fold change (Aza/veh), VPS36 (ProbeSet 11739960_a_at) / Fold change (ACY-1035/veh), VPS36 (ProbeSet 11739960_a_at) / RFU SYPL1 (11715823_x_at) / Fold change /veh SYPL1 (11715823_x_at) / RFU IGFBP7 (11715501_s_at) / Fold change /veh IGFBP7 (11715501_s_at) / RFU REEP3 (11722064_at) / Fold change /veh REEP3 (11722064_at) / RFU IGLL1 (11728026_x_at) / Fold change /veh IGLL1 (11728026_x_at): dose or concentration left out as unconfirmed
Conditions: MV-4-11 cells, 48 hours

`Nc1ncn([C@@H]2O[C@H](CO)[C@@H](O)[C@H]2O)c(=O)n1` [azacitidine] was tested, and the “RFU JSRP1 (11732532_at)” value was 47.93 RFU.
